Reference: patent US10495560B2, “Method of screening drugs” (KOREA RESEARCH INSTITUTE OF STANDARDS AND SCIENCE, priority 2015, dated 2019)

What was measured:
[1] = test system: tight junction proteins (ZO-1) in ARPE-19 cells; experiment: Immunocytochemistry (ZO-1 and DAPI staining) after the blind test; type: cell-based, human; conditions: FIG. 9
Procedure: After performing the screening, as described above, fluorescent staining (using ZO-1 and DAPI) was performed on the endothelial cell layer fixed between two electrodes using immunocytochemistry, and then the endothelial cell layer was observed. FIG. 9A illustrates results of the reference sample, FIG. 9B illustrates results of the sample of which the medium was exchanged with the medium containing TNF-α, and FIG. 9C illustrates results of the sample of which the medium was exchanged with the medium containing both of TNF-α and TNF-α antibody.

[2] = test system: ARPE-19 human retinal epithelial cells; experiment: Blind test: screening of drugs by capacitance of the cell layer; type: cell-based
Procedure: After culturing ARPE-19 (retinal pigmented epithelium, American Type Culture Collection (ATCC), ATCC® CRL-2302™), which is human retinal epithelial cells, instead of bEND.3 similarly to the case of using bEND.3, the cultured ARPE-19 was seeded in the same sensor as that used at the time of measuring bEND.3 so that coverage was 100%. Then, stabilization (fixation) was performed under the same conditions and time as those at the time of stabilizing bEND.3.
After the cells were cultured for stabilization for 24 hours, the culture medium was exchanged.
As the exchanged medium, a reference culture medium containing tumor necrosis factor-alpha (TNF-α, R&D system, 210-TA-020/CF, 10 ng/ml) or a reference culture medium containing tumor necrosis factor-alpha (TNF-α, R&D system, 210-TA-020/CF 10 ng/ml) and TNF-α antibody (Human TNF-alpha MAb, R&D system, MAB610, 2 μg/ml) was prepared. In this case, as the reference culture medium, DMEM:F12 containing 1 vol % penicillin-streptomycin (Gibco) was used similarly to the case of using bEND.3.
After stabilization was performed, medium exchange was randomly performed on each well using the prepared culture media. In this case, medium exchange was performed on a well (reference sample) at a predetermined position using a pure reference culture medium not containing TNF-α or TNF-α antibody, such that a frequency-dependent reference capacitance value at each measurement time was also simultaneously obtained.
Capacitance was measured under the same conditions and the same time interval as those in the case of using bEND.3.
After measurement was performed, in each well, in the case in which an absolute value of an alpha value at a time point (t=50 h based on stabilization) after 26 hours of medium exchange is smaller than an absolute value of a reference alpha value at the same time point, the drug was screened as a drug increasing paracellular permeability. […]

## TNF-α
[1]
  alignment of tight junction proteins: disturbed
[2]; 100 Hz, standardized to start of stabilization, 48 hours after medium exchange (t=72 h), reference sample 1.44
  standardized capacitance value: 1.31
[2]; 100 Hz, based on a time point (t=34 h) after 10 hours of medium exchange
  time for which the standardized capacitance value was continuously decreased: 48 h
[2]; TNF-α 10 ng/ml, three independent criteria (alpha value at 26 h, standardized capacitance at 48 h, continuous decrease at 100 Hz)
  screening result (drug increasing paracellular permeability): screened as wells contacting the drug increasing paracellular permeability
